# US20260034192A1 (University of Saskatchewan, priority 2022, published 2026)
# Marks after values point to notes of the source that are not given here. Square brackets hold non-standard residues; d marks the D form. Peptide text beside a SMILES is read from it. dPhe(4-Cl) = N[C@H](Cc1ccc(Cl)cc1)C(=O)O; d2Nal = N[C@H](Cc1ccc2ccccc2c1)C(=O)O; dCit = NC(=O)NCCC[C@@H](N)C(=O)O; d3Pal = N[C@H](Cc1cccnc1)C(=O)O
# Tests used:
# heifers = assay: Single 3 mg Cetrorelix injection on Day 1, 3 or 6 of wave in heifers (Example 5); format: in vivo, cattle; conditions: for Pregnant/AI: diagnosis 30 days after AI; for Ovulatory follicle size: in mm (unit assumed)
# Procedure: Heifers on a random day of the cycle were treated with two i/m injections of prostaglandin analog and observed by transrectal ultrasonography for the day of ovulation (Defined as Day 0 of the wave). Heifers were then randomized into 4 groups (n=7 to 8 per group) and treated with normal saline (control group) or a single 3 mg i/m injection of cetrorelix on Day 1, Day 3 or Day 6 of the first follicular wave. […] Pregnancy diagnosis was done 30 days after artificial insemination.
# bovine pituitary cells = assay: GnRH-induced LH secretion of bovine pituitary cells in vitro (Example 9); format: cell-based; conditions: 300 μg cetrorelix, 340 μg Degarelix, 300 ug Abarelix, 130 μg Relugolix
# Procedure: Methods: The heads of mature, non-pregnant cows (n=4) were collected from a local abattoir and the pituitary glands were dissected within 60 minutes of slaughter. Immediately following the dissection, the pituitaries were submerged into ice-cold collection medium. The pituitaries were washed 3 times in collection media and the neurohypophysis was dissected from the adenohypophysis. Using a scalpel, the adenohypophysis (anterior pituitary) was sliced into 1 mm×1 mm pieces and transferred to a 50 mL falcon tube containing DMEM medium with 0.5% BSA. The tissue pieces were washed by manually agitating the tube for 1 minute. The tissue pieces were allowed to settle to the bottom of the tube, then the supernatant was discarded. The macerated pieces were transferred to a 15 mL falcon tube with the dissociation medium and incubated at 37° C. for 60 minutes. Every 10 minutes the tube was vortexed for 1 minute to ensure the tissue was completely dissociated. The dissociation media was inactivated using DMEM with 10% SFB then manually agitating the tube for 1 minute. The dissociated cells were placed in a 40 μm cell strainer to remove the undigested tissue and placed into two 15 mL falcon tubes. The cells were centrifuged at 200×g for 10 minutes and the supernatant was discarded. The cells were washed three times by resuspending in DMEM solution with red blood cell lysing buffer followed by centrifuged at 200×g for 10 minutes. Then the cells were washed with DMEM solution and centrifuged at 200×g for 10 minutes. Following the last centrifugation, the cells were resuspended in DMEM, and the trypan blue test was used to determine the cell count and assess viability. DMEM with 10% fetal bovine serum (FBS) was treated with 10% charcoal-dextran and passed through a 0.2 μm filter. The cells were then plated in a 24-well tissue culture plate with a concentration of 1×10^6 viable cells per well and incubated at 37° C. for 24 hours. The following day, to starve the cells, the culture media was replaced with DMEM without FBS and left to incubate for another 24 hours.
# Treatments: Based on the results from the pilot study, the selected concentration for Cetrorelix (cetrorelix acetate) was 300 μg. The cetrorelix was dissolved in trace levels of DMSO then dissolved in ultrapure water. To standardize the treatments, the nanomole concentration of each GnRH antagonist were matched with the cetrorelix nanomole concentration. The final concentration used for further experiments were: 300 μg for cetrorelix, 340 μg for Degarelix (Degarelix acetate), 300 ug for Abarelix (Abarelix acetate). Both degarelix and abarelix were dissolved ultrapure water. The equivalent Relugolix nanomole concentration was 130 μg which was dissolved in methanol. Treatment cells were preincubated for 60 minutes with either Cetrorelix, Degarelix, Relugolix or Abarelix. Following the preincubation, the cells were incubated for 30 minutes with either 1 nM or 10 nM of GnRH (Gonadorelin, Fertagyl, Merck Animal Health). GnRH doses were based on pituitary study by Paolicchi et al. 1999). The media were collected and centrifuged at 200×g for 10 minutes to remove the cells. Positive (Control) group was only treated with 1 nM and 10 nM of GnRH to determine the maximum LH secretion. LH concentrations in the culture medium was measured by a commercial bovine specific ELISA kit and reported as mIU/ml of medium.
# [1] = single 3 mg i/m on Day 1 (Cetro 1)
# [2] = single 3 mg i/m on Day 3 (Cetro 3)
# [3] = single 3 mg i/m on Day 6 (Cetro 6)
# [4] = three cetrorelix groups combined
compound,measurement,setting,value
"CC(=O)N[C@H](Cc1ccc2ccccc2c1)C(=O)N[C@H](Cc1ccc(Cl)cc1)C(=O)N[C@H](Cc1cccnc1)C(=O)N[C@@H](CO)C(=O)N[C@@H](Cc1ccc(O)cc1)C(=O)N[C@H](CCCNC(N)=O)C(=O)N[C@@H](CC(C)C)C(=O)N[C@@H](CCCNC(=N)N)C(=O)N1CCC[C@H]1C(=O)N[C@H](C)C(N)=O [Cetrorelix, N-acetyl-3-(2-naphthyl)-D-alanyl-4-chloro-D-phenylalanyl-3-(3-pyridyl)-D-alanyl-L-seryl-L-tyrosyl-D-citrullyl-L-leucyl-L-arginyl-L-prolyl-D-alaninamide] (Ac-[d2Nal][dPhe(4-Cl)][d3Pal]SY[dCit]LRP[dA]-NH2)",Wave emergence after the cetrorelix treatment irrespective of the phase of the dominant follicle,"heifers; single 3 mg (about 7.5 ug/kg) i/m, groups combined",about 3.5±0.4 days
same,Start of dominant follicle regression after cetrorelix treatment,heifers; single 3 mg i/m,≤ 2 days
same,Day of second wave emergence,heifers; [1],4.4 ± 0.5^c
same,Days from second wave emergence to ovulation,heifers; [1],10.0 ± 0.6^ab* Days
same,"Pregnancy rate (Pregnant/AI, percent)",heifers; [1],(62%)
same,Treatment to wave emergence,heifers; [1],3.4 ± 0.5 days
same,Pregnant/AI,heifers; [1],5/8
same,Ovulatory follicle size,heifers; [1],14.4 ± 1.0
same,Day of second wave emergence,heifers; [2],7.0 ± 0.4^b
same,Days from second wave emergence to ovulation,heifers; [2],9.0 ± 0.4^ab Days
same,"Pregnancy rate (Pregnant/AI, percent)",heifers; [2],(66%)
same,Treatment to wave emergence (days),heifers; [2],4.0 ± 0.4^ days
same,Pregnant/AI,heifers; [2],4/6
same,Ovulatory follicle size,heifers; [2],15.8 ± 0.6
same,Day of second wave emergence,heifers; [3],9.4 ± 0.5^a
same,Days from second wave emergence to ovulation,heifers; [3],8.4 ± 0.4^b Days
same,"Pregnancy rate (Pregnant/AI, percent)",heifers; [3],(42%)
same,Treatment to wave emergence,heifers; [3],3.4 ± 0.5 days
same,Pregnant/AI,heifers; [3],3/7
same,Ovulatory follicle size,heifers; [3],14.9 ± 0.3
same,"Overall pregnancy rate, percent",heifers; [4],57%
same,"Overall pregnancy rate, pregnant/AI",heifers; [4],12/21
same,LH conc in medium,bovine pituitary cells; challenged with 1 nM GnRH 30 minutes after 60 minutes preincubation,0.09 mIU/mL
same,LH conc in medium,bovine pituitary cells; challenged with 10 nM GnRH 30 minutes after 60 minutes preincubation,0.50 mIU/mL
